{"source": "ChEMBL document CHEMBL1201862", "about": "“PubChem BioAssay data set” (2004)", "key": {"[1]": {"target": "T1, Aryl hydrocarbon receptor (Homo sapiens, UniProt P35869)", "T1 sequence (P35869 whole entry)": "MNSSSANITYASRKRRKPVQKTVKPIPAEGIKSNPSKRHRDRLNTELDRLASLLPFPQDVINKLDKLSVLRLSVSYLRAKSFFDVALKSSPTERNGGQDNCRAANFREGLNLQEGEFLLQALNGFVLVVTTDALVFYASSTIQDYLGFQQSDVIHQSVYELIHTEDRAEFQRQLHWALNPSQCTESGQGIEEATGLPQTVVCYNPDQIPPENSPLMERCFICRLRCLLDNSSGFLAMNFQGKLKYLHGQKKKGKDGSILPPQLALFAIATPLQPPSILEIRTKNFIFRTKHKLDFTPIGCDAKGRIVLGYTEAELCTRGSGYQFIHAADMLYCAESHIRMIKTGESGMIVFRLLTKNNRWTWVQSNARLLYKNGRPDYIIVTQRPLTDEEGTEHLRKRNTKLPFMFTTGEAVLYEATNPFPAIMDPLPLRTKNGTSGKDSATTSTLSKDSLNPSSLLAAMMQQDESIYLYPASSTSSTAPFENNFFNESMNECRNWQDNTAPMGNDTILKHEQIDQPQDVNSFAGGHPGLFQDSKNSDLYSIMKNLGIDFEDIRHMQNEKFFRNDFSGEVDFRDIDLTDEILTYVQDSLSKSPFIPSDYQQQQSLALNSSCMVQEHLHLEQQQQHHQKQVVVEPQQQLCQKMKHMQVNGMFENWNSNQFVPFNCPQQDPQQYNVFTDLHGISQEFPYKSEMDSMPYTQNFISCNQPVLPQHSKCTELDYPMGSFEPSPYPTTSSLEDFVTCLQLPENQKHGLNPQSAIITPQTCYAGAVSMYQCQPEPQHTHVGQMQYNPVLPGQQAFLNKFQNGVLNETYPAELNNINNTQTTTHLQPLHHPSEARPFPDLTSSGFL", "details": "Potency"}, "Cytochrome P450 3A4": {"target": "Cytochrome P450 3A4 (Homo sapiens, UniProt P08684)", "sequence (P08684 whole entry)": "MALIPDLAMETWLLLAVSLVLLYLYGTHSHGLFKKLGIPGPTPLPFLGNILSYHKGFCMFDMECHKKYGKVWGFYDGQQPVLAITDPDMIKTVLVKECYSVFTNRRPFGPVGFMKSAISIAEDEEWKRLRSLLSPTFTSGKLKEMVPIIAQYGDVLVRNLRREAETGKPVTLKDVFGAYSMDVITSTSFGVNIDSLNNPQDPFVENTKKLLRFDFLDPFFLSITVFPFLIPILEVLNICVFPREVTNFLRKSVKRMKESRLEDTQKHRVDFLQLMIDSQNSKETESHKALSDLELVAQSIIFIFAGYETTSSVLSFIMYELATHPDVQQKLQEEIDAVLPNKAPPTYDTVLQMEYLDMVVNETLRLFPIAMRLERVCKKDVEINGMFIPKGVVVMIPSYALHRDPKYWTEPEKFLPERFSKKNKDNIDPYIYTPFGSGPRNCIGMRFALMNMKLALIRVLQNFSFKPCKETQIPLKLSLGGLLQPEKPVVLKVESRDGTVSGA", "details": "Potency"}, "BJ [2]": {"test_system": "BJ", "experiment": "cells", "format": "functional, cell-based", "details": "Homo sapiens"}, "BJ [3]": {"test_system": "BJ", "experiment": "BJ-TERT-LT-ST fibroblast viability loss – cell-based, RAS-independent, luminescence, dose response (AID 1935);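 note: BJ fibroblasts immortalized with TERT plus LT and ST oncogenes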", "format": "functional", "details": "Homo sapiens"}, "BJ [4]": {"test_system": "BJ", "experiment": "BJ-TERT fibroblast viability loss – cell-based, RAS-independent, luminescence, dose response (AID 1933)", "format": "functional", "details": "Homo sapiens"}, "[5]": {"experiment": "DRD fibroblast viability loss – cell-based, non-viral oncogenic, luminescence, dose response (AID 1934)", "format": "functional", "details": "Homo sapiens"}, "[6]": {"target": "Adenosylmethionine-8-amino-7-oxononanoate aminotransferase (Mycobacterium tuberculosis, UniProt P9WQ81)", "sequence (P9WQ81 whole entry)": "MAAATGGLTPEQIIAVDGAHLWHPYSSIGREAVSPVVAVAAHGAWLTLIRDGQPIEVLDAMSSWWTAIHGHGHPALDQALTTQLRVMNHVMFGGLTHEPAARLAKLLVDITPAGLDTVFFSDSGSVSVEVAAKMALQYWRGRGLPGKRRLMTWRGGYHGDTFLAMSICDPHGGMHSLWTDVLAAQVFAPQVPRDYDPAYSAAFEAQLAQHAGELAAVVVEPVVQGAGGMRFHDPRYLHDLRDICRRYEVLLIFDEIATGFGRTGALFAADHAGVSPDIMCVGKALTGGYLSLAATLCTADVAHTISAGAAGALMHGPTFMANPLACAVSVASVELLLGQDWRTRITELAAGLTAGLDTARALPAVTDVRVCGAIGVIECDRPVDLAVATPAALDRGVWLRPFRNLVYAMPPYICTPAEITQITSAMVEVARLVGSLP", "experiment": "Mycobacterium tuberculosis BioA enzyme inhibitor Measured in Biochemical System Using Plate Reader - 2163-02_Inhibitor_Dose_CherryPick_Activity.", "format": "functional, Mycobacterium tuberculosis UT205"}, "[7]": {"target": "T2, Mitochondrial peptide methionine sulfoxide reductase (Bos taurus, UniProt P54149)", "T2 sequence (P54149 whole entry)": "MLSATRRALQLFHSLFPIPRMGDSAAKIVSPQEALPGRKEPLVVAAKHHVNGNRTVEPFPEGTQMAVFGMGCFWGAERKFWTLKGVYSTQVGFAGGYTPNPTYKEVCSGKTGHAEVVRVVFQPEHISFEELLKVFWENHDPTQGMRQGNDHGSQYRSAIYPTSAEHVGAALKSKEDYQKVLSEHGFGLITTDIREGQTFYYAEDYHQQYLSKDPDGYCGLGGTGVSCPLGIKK", "format": "functional"}, "[8]": {"target": "T3, Sentrin-specific protease 1 (Homo sapiens, UniProt Q9P0U3)", "T3 sequence (Q9P0U3 whole entry)": "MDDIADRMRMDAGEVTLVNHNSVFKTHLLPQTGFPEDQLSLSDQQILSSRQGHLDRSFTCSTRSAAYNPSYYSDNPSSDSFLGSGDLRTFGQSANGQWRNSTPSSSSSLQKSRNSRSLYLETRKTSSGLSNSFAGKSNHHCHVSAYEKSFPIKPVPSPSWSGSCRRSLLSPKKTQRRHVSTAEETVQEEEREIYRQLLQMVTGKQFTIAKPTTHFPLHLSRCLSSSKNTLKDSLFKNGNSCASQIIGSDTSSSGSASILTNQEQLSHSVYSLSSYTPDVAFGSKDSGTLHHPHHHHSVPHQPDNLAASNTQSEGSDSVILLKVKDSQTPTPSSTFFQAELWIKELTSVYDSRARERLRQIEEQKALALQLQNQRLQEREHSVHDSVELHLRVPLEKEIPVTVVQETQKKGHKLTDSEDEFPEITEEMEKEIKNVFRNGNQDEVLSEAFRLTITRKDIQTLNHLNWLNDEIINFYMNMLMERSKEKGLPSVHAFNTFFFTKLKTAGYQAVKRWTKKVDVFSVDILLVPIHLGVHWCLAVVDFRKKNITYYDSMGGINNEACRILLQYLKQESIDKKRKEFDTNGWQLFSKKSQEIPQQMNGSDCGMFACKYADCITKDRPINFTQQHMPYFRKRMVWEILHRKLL", "experiment": "Dose response confirmation of small molecule inhibitors of the catalytic domain of the SUMO protease, SENP1 in a FRET assay.", "format": "functional", "details": "read-out: IC50_Mean"}, "[9]": {"target": "T3, Sentrin-specific protease 1", "experiment": "SENP1 catalytic domain blockers, concentration series – biochemical, kinetic FRET, dose response (AID 651697)", "format": "functional", "details": "read-out: IC50_Mean"}, "Vero": {"test_system": "Vero", "experiment": "cells", "format": "functional", "details": "Chlorocebus sabaeus"}, "[10]": {"experiment": "activation of miR-122 Renilla sensor silencing – cell-based, Huh7 psiCHECK-miR122, Renilla luciferase, cherry-picked, dose response (AID 651956);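 note: huh7 hepatoma cells stably carrying a psiCHECK-2 miR-122 sensor plasmid; renilla luciferase signal reporting endogenous miR-122 activity after 48 h compound exposure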", "format": "functional"}, "[11]": {"target": "Protein kinase C gamma type (Homo sapiens, UniProt P05129)", "format": "functional"}, "[12]": {"target": "T4, Protein kinase C zeta type (Homo sapiens, UniProt Q05513)", "T4 sequence (Q05513 whole entry)": "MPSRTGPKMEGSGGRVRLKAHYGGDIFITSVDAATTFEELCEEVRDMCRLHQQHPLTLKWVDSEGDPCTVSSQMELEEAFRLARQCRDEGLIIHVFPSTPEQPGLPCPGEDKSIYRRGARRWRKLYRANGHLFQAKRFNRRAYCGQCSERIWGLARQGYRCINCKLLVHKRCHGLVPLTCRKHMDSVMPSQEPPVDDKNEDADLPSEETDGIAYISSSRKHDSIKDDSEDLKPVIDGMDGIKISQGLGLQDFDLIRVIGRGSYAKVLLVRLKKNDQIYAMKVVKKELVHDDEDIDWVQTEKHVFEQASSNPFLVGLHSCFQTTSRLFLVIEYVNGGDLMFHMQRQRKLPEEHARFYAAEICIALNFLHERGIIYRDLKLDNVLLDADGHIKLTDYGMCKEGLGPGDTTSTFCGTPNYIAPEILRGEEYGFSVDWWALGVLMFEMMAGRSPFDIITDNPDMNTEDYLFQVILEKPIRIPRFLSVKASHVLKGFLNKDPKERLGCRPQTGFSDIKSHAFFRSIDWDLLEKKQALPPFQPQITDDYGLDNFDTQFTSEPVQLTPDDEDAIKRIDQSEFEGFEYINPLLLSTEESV", "format": "functional"}, "[13]": {"target": "MAP kinase-activated protein kinase 3 (Homo sapiens, UniProt Q16644)", "sequence (Q16644 whole entry)": "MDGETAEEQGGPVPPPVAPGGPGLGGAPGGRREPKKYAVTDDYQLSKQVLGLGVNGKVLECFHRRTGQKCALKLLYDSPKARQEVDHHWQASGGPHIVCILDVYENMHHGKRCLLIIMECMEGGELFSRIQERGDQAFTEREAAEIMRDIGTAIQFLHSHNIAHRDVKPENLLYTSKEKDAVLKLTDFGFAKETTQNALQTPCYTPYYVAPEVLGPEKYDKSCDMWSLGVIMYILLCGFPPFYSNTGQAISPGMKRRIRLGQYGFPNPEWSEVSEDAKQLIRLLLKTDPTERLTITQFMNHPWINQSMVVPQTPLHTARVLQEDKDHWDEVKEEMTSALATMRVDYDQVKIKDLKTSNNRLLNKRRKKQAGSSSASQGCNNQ", "format": "functional"}, "[14]": {"target": "T5, Testis-specific serine/threonine-protein kinase 2 (Homo sapiens, UniProt Q96PF2)", "T5 sequence (Q96PF2 whole entry)": "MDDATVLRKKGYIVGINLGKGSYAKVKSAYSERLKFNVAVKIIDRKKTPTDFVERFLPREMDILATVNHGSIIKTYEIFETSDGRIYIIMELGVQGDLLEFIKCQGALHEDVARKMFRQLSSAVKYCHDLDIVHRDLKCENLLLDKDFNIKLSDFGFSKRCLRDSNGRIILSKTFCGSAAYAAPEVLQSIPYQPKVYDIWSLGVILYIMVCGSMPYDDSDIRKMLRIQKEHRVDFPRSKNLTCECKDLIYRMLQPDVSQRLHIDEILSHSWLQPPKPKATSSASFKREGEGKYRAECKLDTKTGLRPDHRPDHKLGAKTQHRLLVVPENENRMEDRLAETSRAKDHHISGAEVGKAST", "format": "functional"}, "[15]": {"target": "PAS domain-containing serine/threonine-protein kinase (Homo sapiens, UniProt Q96RG2)", "sequence (Q96RG2 whole entry, the tested form may be a part)": "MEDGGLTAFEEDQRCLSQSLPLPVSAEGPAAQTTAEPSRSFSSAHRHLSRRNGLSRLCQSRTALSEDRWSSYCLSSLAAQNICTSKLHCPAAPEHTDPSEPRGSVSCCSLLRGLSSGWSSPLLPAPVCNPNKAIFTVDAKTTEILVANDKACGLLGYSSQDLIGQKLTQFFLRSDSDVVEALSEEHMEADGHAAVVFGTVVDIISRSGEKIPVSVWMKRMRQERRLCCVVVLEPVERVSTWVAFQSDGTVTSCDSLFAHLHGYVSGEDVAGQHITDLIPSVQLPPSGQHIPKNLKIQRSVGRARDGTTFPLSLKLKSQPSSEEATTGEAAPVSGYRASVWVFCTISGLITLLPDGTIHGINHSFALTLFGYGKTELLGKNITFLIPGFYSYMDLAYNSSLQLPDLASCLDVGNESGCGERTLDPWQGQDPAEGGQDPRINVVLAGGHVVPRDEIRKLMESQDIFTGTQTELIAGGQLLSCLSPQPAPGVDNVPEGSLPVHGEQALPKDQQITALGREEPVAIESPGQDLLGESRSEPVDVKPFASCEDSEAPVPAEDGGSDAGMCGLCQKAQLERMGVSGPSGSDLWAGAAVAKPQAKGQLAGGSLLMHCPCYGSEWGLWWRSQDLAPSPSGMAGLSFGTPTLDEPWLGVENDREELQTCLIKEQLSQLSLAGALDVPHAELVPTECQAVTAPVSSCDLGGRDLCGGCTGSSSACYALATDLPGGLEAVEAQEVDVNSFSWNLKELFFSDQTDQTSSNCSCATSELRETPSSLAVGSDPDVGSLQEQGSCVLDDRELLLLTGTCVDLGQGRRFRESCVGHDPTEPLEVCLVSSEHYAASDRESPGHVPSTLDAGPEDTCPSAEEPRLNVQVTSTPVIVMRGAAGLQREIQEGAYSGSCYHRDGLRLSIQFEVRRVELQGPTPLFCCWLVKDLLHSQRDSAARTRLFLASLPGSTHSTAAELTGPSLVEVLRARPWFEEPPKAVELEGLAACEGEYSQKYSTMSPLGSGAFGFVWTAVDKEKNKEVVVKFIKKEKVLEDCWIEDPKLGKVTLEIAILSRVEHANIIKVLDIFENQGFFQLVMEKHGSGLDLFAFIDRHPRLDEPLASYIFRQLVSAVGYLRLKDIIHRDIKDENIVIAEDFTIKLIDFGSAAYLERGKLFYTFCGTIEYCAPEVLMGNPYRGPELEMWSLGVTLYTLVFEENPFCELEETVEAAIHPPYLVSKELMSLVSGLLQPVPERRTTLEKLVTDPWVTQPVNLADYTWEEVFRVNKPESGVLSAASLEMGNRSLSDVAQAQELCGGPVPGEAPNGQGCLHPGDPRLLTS", "format": "functional"}, "[16]": {"target": "T6, Dual specificity tyrosine-phosphorylation-regulated kinase 3 (Homo sapiens, UniProt O43781)", "T6 sequence (O43781 whole entry)": "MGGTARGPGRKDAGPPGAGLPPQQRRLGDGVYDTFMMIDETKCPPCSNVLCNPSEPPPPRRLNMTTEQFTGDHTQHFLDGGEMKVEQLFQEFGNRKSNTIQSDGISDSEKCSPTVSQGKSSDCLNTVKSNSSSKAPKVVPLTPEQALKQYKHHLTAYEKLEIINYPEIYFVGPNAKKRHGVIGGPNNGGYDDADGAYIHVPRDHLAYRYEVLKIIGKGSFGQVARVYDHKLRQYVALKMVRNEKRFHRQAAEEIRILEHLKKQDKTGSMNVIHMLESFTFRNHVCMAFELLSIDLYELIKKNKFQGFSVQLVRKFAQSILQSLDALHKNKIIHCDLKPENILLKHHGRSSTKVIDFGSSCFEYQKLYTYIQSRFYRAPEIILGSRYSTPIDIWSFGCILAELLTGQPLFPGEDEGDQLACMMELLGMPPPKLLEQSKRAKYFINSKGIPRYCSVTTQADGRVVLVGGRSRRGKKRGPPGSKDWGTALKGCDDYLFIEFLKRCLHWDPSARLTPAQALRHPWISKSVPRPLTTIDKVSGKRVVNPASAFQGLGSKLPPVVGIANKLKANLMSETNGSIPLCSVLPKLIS", "format": "functional"}, "[17]": {"target": "Cyclin-dependent kinase 1 (Homo sapiens, UniProt P06493)", "sequence (P06493 whole entry)": "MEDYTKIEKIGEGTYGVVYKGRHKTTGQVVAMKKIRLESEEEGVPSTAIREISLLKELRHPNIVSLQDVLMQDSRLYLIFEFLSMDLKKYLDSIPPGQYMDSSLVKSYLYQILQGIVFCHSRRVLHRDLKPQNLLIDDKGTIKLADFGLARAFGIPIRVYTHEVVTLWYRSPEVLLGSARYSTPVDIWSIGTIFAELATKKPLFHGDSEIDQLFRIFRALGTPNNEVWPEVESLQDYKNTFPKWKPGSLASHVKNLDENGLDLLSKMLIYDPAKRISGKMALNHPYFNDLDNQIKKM", "format": "functional"}, "[18]": {"target": "T7, Lymphokine-activated killer T-cell-originated protein kinase (Homo sapiens, UniProt Q96KB5)", "T7 sequence (Q96KB5 whole entry)": "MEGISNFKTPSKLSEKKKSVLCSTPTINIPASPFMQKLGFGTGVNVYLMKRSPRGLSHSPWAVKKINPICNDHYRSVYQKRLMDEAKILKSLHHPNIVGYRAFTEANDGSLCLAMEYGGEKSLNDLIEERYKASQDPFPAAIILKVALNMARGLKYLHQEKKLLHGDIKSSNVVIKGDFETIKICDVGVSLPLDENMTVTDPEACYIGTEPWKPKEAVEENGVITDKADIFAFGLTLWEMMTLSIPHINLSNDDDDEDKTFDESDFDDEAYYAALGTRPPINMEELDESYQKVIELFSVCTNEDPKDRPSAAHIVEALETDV", "format": "functional"}}, "note": "Calls of active or inactive are those of the source."}
{"smiles": "COc1ccc(C(=O)Nc2ccccc2)cc1[N+](=O)[O-]", "values": [{"measurement": "AC50", "setting": "[1]", "result": "44.7 µM (inconclusive)"}, {"measurement": "AC50", "setting": "Cytochrome P450 3A4", "result": "15.8 µM (inconclusive)"}]}
{"smiles": "CC(=O)c1ccc(N2CCN(c3ncccn3)CC2)c([N+](=O)[O-])c1", "values": [{"measurement": "EC50", "setting": "BJ [2]", "result": "> 150 µM (not active)"}, {"measurement": "EC50", "setting": "BJ [3]", "result": "> 150 µM (inconclusive)"}, {"measurement": "EC50", "setting": "BJ [4]", "result": "> 150 µM (not active)"}, {"measurement": "EC50", "setting": "[5]", "result": "> 150 µM (not active)"}, {"measurement": "AC50", "setting": "[6]", "result": "1.02 µM (active)"}]}
{"smiles": "CSc1nc2[nH]c3c(c2c2nnnn12)CCCC3", "values": [{"measurement": "IC50", "setting": "[7]", "result": "155 µM (inactive)"}]}
{"smiles": "COc1cc2cnc(-c3cccnc3)cc2cc1OC", "values": [{"measurement": "AC50", "setting": "[6]", "result": "11.2 µM (active)"}]}
{"smiles": "O=c1c2ccccc2nc(/C=C/c2cc(Br)ccc2O)n1CCO", "values": [{"measurement": "IC50", "setting": "[8]", "result": "6.14 µM (active)"}, {"measurement": "IC50", "setting": "[9]", "result": "8.91 µM (active)"}, {"measurement": "CC50", "setting": "Vero", "result": "15.2 µM (active)"}]}
{"smiles": "CC(C)(C)[C@@H](O)/C(=C\\c1ccc(Cl)cc1Cl)n1cncn1", "values": [{"measurement": "AC50", "setting": "[1]", "result": "70.8 µM (inconclusive)"}]}
{"smiles": "CNC(=O)C[C@@H]1CC[C@H]2[C@@H](COc3ccc(NC(=O)c4cccc(OC)c4)cc3C(=O)N2C)O1", "values": [{"measurement": "AC50", "setting": "[10]", "result": "54.9 µM (active)"}]}
{"smiles": "CN1CCN(c2ccc3nc(-c4c(N)c5c(F)cccc5[nH]c4=O)[nH]c3c2)CC1", "note": "[DOVITINIB]", "values": [{"measurement": "Ki", "setting": "[11]", "result": "> 7.94 µM (inactive)"}, {"measurement": "Ki", "setting": "[12]", "result": "> 7.94 µM (inactive)"}, {"measurement": "Ki", "setting": "[13]", "result": "> 10 µM (inactive)"}, {"measurement": "Ki", "setting": "[14]", "result": "> 1.58 µM (inactive)"}, {"measurement": "Ki", "setting": "[15]", "result": "> 1.58 µM (inactive)"}, {"measurement": "Ki", "setting": "[16]", "result": "> 6.31 µM (inactive)"}, {"measurement": "Ki", "setting": "[17]", "result": "> 7.94 µM (inactive)"}, {"measurement": "Ki", "setting": "[18]", "result": "> 10 µM (inactive)"}]}
